According to US12281122B1, “PI3K inhibitors” (Cogent Biosciences, Inc., priority 2023, dated 2025):

Tests used:
[1] = system: T47D (PI3Kα-H1047R) cell line; assay: HTRF phospho-AKT(S473) cell assay in T47D cells; assay type: cell-based, human; conditions: Homo sapiens, 2 hours compound incubation
In short: (§1)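 Cells plated overnight (T47D in RPMI/10% FBS/0.2 units/mL insulin; SKBR3 in McCoy's 5A/10% FBS), then given 12-point 1:3 compound series (top 5 μM T47D, 10 μM SKBR3; ≤0.5% DMSO) for 2 h at 37° C. SKBR3 stimulated with 70 ng/ml PDGF-BB for final 15 min. Lysate pAKT(S473) by HTRF; IC50 calculated.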

[2] = system: SKBR3 (PI3Kα-Wild Type) cell line; assay: HTRF phospho-AKT(S473) cell assay in SKBR3 cells; assay type: cell-based, human; conditions: Homo sapiens, SK-BR-3, 2 hours compound incubation, PDGF-BB stimulated
In short: as §1

[3] = T47D (PI3Kα-H1047R) cells, HTRF phospho-AKT(S473)
[4] = SKBR3 (PI3Kα-Wild Type) cells, HTRF phospho-AKT(S473)
[5] = HTRF phospho-AKT(S473), T47D (PI3Kα-H1047R) cells
[6] = HTRF phospho-AKT(S473), SKBR3 (PI3Kα-Wild Type) cells

Row | IC50 [1, 3] [nM] | IC50 [2, 4] [nM] | IC50 [1, 5] [nM] | IC50 [2, 6] [nM] | SMILES | also measured
1 | < 250 | 1000 to 5000 | – | – | Cc1cc([C@@H](C)Nc2ccc(Cl)nc2C(=O)NS(C)(=O)=O)c2nc(N3CCN(c4ccn(C)n4)CC3)n(C)c(=O)c2c1 [Compound 187, (R)-6-chloro-3-((1-(3,6-dimethyl-2-(4-(1-methyl-1H-pyrazol-3-yl)piperazin-1-yl)-4-oxo-3,4-dihydroquinazolin-8-yl)ethyl)amino)-N-(methylsulfonyl) picolinamide] | –
2 | – | – | < 250 | 1000 to 5000 | Cc1cc([C@@H](C)Nc2ccc(Cl)nc2C(=O)NS(C)(=O)=O)c2nc(N3Cc4cnc(C)cc4C3)n(C)c(=O)c2c1 [Compound 516, (R)-6-chloro-3-((1-(3,6-dimethyl-2-(6-methyl-1,3-dihydro-2H-pyrrolo[3,4-c]pyridin-2-yl)-4-oxo-3,4-dihydroquinazolin-8-yl)ethyl)amino)-N-(methylsulfonyl) picolinamide] | –
3 | – | – | 250 to 500 | ≥ 5000 | Cc1cnc(N2C[C@@H]3C[C@H]2CN3c2nc3c([C@@H](C)Nc4ccc(Cl)nc4C(=O)NS(C)(=O)=O)cc(C)cc3c(=O)n2C)nc1 [Compound 564, 6-chloro-3-(((R)-1-(3,6-dimethyl-2-((1S,4S)-5-(5-methylpyrimidin-2-yl)-2,5-diazabicyclo[2.2.1]heptan-2-yl)-4-oxo-3,4-dihydroquinazolin-8-yl)ethyl)amino)-N-(methylsulfonyl) picolinamide] | –
4 | – | – | < 250 | 1000 to 5000 | Cc1cc([C@@H](C)Nc2ccc(Cl)nc2C(=O)NS(C)(=O)=O)c2nc(N3C[C@@H]4[C@H](C3)[C@H]4c3ccn(C(F)F)n3)n(C)c(=O)c2c1 [Compound 470, 6-chloro-3-(((R)-1-(2-((1R,5S,6R)-6-(1-(difluoromethyl)-1H-pyrazol-3-yl)-3-azabicyclo[3.1.0]hexan-3-yl)-3,6-dimethyl-4-oxo-3,4-dihydroquinazolin-8-yl)ethyl)amino)-N-(methylsulfonyl) picolinamide] | –
5 | – | – | 250 to 500 | 1000 to 5000 | Cc1cc([C@@H](C)Nc2ccc(Cl)nc2C(=O)NS(C)(=O)=O)c2nc(N3Cc4cnc(C)nc4C3)n(C)c(=O)c2c1 [Compound 612, (R)-6-chloro-3-((1-(3,6-dimethyl-2-(2-methyl-5,7-dihydro-6H-pyrrolo[3,4-d]pyrimidin-6-yl)-4-oxo-3,4-dihydroquinazolin-8-yl)ethyl)amino)-N-(methylsulfonyl) picolinamide] | –
6 | < 250 | 1000 to 5000 | – | – | Cc1cc([C@@H](C)Nc2ccc(Cl)nc2C(=O)NS(C)(=O)=O)c2nc(N3CCC(c4nn(C)cc4C)CC3)n(C)c(=O)c2c1 [Compound 248, ®-6-chloro-3-((1-(2-(4-(1,4-dimethyl-1H-pyrazol-3-yl)piperidin-1-yl)-3,6-dimethyl-4-oxo-3,4-dihydroquinazolin-8-yl)ethyl)amino)-N-(methylsulfonyl) picolinamide] | –
7 | – | – | 250 to 500 | ≥ 5000 | Cc1cc([C@@H](C)Nc2ccc(Cl)nc2C(=O)NS(C)(=O)=O)c2nc(N3CCC[C@H](c4ccn(C(F)F)n4)C3)n(C)c(=O)c2c1 (relative stereo) [Compound 770, 6-chloro-3-(((R)-1-(2-((R*)-3-(1-(difluoromethyl)-1H-pyrazol-3-yl)piperidin-1-yl)-3,6-dimethyl-4-oxo-3,4-dihydroquinazolin-8-yl)ethyl)amino)-N-(methylsulfonyl) picolinamide] | –

Further lines, the compound ahead of its results:

Row | SMILES | IC50 [1, 3] [nM] | IC50 [2, 4] [nM] | IC50 [1, 5] [nM] | IC50 [2, 6] [nM] | also measured
8 | Cc1cc([C@@H](C)Nc2ccc(Cl)nc2C(=O)NS(C)(=O)=O)c2nc(N3CCC(c4c(F)cnn4C)CC3)n(C)c(=O)c2c1 [Compound 412, (R)-6-chloro-3-((1-(2-(4-(4-fluoro-1-methyl-1H-pyrazol-5-yl)piperidin-1-yl)-3,6-dimethyl-4-oxo-3,4-dihydroquinazolin-8-yl)ethyl)amino)-N-(methylsulfonyl) picolinamide] | < 250 | 1000 to 5000 | – | – | –
9 | Cc1cc([C@@H](C)Nc2ccc(Cl)nc2C(=O)NS(C)(=O)=O)c2nc(N3CCc4nn(C5COC5)cc4C3)n(C)c(=O)c2c1 [Compound 334, (R)-6-chloro-3-((1-(3,6-dimethyl-2-(2-(oxetan-3-yl)-2,4,6,7-tetrahydro-5H-pyrazolo[4,3-c]pyridin-5-yl)-4-oxo-3,4-dihydroquinazolin-8-yl)ethyl)amino)-N-(methylsulfonyl) picolinamide] | < 250 | 1000 to 5000 | – | – | –
10 | Cc1cc([C@@H](C)Nc2ccc(Cl)nc2C(=O)NS(C)(=O)=O)c2nc(N3Cc4cn(-c5ncc(C#N)cc5C)nc4C3)n(C)c(=O)c2c1 [Compound 698, (R)-6-chloro-3-((1-(2-(2-(5-cyano-3-methylpyridin-2-yl)-2,6-dihydropyrrolo[3,4-c]pyrazol-5(4H)-yl)-3,6-dimethyl-4-oxo-3,4-dihydroquinazolin-8-yl)ethyl)amino)-N-(methylsulfonyl) picolinamide] | – | – | 250 to 500 | 1000 to 5000 | –
11 | Cc1cc([C@@H](C)Nc2ccc(Cl)nc2C(=O)NS(C)(=O)=O)c2nc(N3C[C@@H]4[C@H](C3)[C@H]4c3cnc(C4CC4)nc3)n(C)c(=O)c2c1 [Compound 485, 6-chloro-3-(((R)-1-(2-((1R,5S,6S)-6-(2-cyclopropylpyrimidin-5-yl)-3-azabicyclo[3.1.0]hexan-3-yl)-3,6-dimethyl-4-oxo-3,4-dihydroquinazolin-8-yl)ethyl)amino)-N-(methylsulfonyl) picolinamide] | – | – | 250 to 500 | 1000 to 5000 | –
12 | Cc1cc([C@@H](C)Nc2ccc(Cl)nc2C(=O)NS(C)(=O)=O)c2nc(N3CC[C@H](c4cnc(C)nc4)C3)n(C)c(=O)c2c1 (relative stereo) [Compound 658, 6-chloro-3-(((R)-1-(3,6-dimethyl-2-((R*)-3-(2-methylpyrimidin-5-yl)pyrrolidin-1-yl)-4-oxo-3,4-dihydroquinazolin-8-yl)ethyl)amino)-N-(methylsulfonyl) picolinamide] | – | – | 500 to 1000 | ≥ 5000 | –
13 | Cc1cc([C@@H](C)Nc2ccc(Cl)nc2C(=O)NS(C)(=O)=O)c2nc(-c3ccc4nn(C5CC5)cc4c3)n(C)c(=O)c2c1 [Compound 819, (R)-6-chloro-3-((1-(2-(2-cyclopropyl-2H-indazol-5-yl)-3,6-dimethyl-4-oxo-3,4-dihydroquinazolin-8-yl)ethyl)amino)-N-(methylsulfonyl) picolinamide] | – | – | 250 to 500 | 1000 to 5000 | –
14 | Cc1cc([C@@H](C)Nc2ccc(Cl)nc2C(=O)NS(C)(=O)=O)c2nc(N3CCC(c4cnc(C(F)F)cn4)CC3)n(C)c(=O)c2c1 [Compound 428, (R)-6-chloro-3-((1-(2-(4-(5-(difluoromethyl)pyrazin-2-yl)piperidin-1-yl)-3,6-dimethyl-4-oxo-3,4-dihydroquinazolin-8-yl)ethyl)amino)-N-(methylsulfonyl) picolinamide] | 250 to 500 | 1000 to 5000 | – | – | –
15 | Cc1cc([C@@H](C)Nc2ccc(Cl)nc2C(=O)NS(C)(=O)=O)c2nc(N3CC[C@@H](Nc4ncccn4)C3)n(C)c(=O)c2c1 [Compound 541, 6-chloro-3-(((R)-1-(3,6-dimethyl-4-oxo-2-((R)-3-(pyrimidin-2-ylamino)pyrrolidin-1-yl)-3,4-dihydroquinazolin-8-yl)ethyl)amino)-N-(methylsulfonyl) picolinamide] | – | – | < 250 | ≥ 5000 | –
16 | [2H]C([2H])([2H])n1nccc1[C@H]1[C@@H]2CN(c3nc4c([C@@H](C)Nc5ccc(Cl)nc5C(=O)NS(C)(=O)=O)cc(C)cc4c(=O)n3C)C[C@@H]21 [Compound 494, 6-chloro-3-(((R)-1-(3,6-dimethyl-2-((1R,5S,6R)-6-(1-(methyl-d3)-1H-pyrazol-5-yl)-3-azabicyclo[3.1.0]hexan-3-yl)-4-oxo-3,4-dihydroquinazolin-8-yl)ethyl)amino)-N-(methylsulfonyl) picolinamide] | – | – | < 250 | 1000 to 5000 | –
17 | Cc1cc([C@@H](C)Nc2ccc(Cl)nc2C(=O)NS(C)(=O)=O)c2nc(-c3ccc(N4CCN(C)CC4)nc3)n(C)c(=O)c2c1 [Compound 251] | < 250 | 1000 to 5000 | – | – | –
18 | Cc1cc([C@@H](C)Nc2ccc(Cl)nc2C(=O)NS(C)(=O)=O)c2nc(N3CCC(c4ccn(C)n4)CC3)n(C3CC3)c(=O)c2c1 [Compound 372, (R)-6-chloro-3-((1-(3-cyclopropyl-6-methyl-2-(4-(1-methyl-1H-pyrazol-3-yl)piperidin-1-yl)-4-oxo-3,4-dihydroquinazolin-8-yl)ethyl)amino)-N-(methylsulfonyl) picolinamide] | < 250 | 1000 to 5000 | – | – | –
19 | CO[C@H]1CCC2(CCN(c3nc4c([C@@H](C)Nc5ccc(Cl)nc5C(=O)NS(C)(=O)=O)cc(C)cc4c(=O)n3C)CC2)OC1 (mixture of isomers) [Compound 721, 6-chloro-3-(((R)-1-(2-((RS)-3-methoxy-1-oxa-9-azaspiro[5.5]undecan-9-yl)-3,6-dimethyl-4-oxo-3,4-dihydroquinazolin-8-yl)ethyl)amino)-N-(methylsulfonyl) picolinamide] | – | – | 250 to 500 | ≥ 5000 | –
20 | Cc1cc([C@@H](C)Nc2ccc(Cl)nc2C(=O)NS(C)(=O)=O)c2nc(-c3ccc(-c4cnc(C)nc4)nc3)n(C)c(=O)c2c1 [Compound 854, (R)-6-chloro-3-((1-(3,6-dimethyl-2-(6-(2-methylpyrimidin-5-yl)pyridin-3-yl)-4-oxo-3,4-dihydroquinazolin-8-yl)ethyl)amino)-N-(methylsulfonyl) picolinamide] | – | – | – | – | IC50 ([1]; T47D (PI3Kα-H1047R) cell line, phospho-AKT(S473) HTRF): < 250 nM; IC50 ([2]; SKBR3 (PI3Kα-Wild Type) cell line, phospho-AKT(S473) HTRF): 1000 to 5000 nM
